The values below are quoted from earlier work in patent publication US20040096496A1, “Sustained release pharmaceutical composition of a cephalosporin antibiotic” (Orchid Chemicals & Pharmaceuticals Limited, priority 2002, published 2004).

The conditions of this data set: background statement, species not given.

Each structure is given as a SMILES string.

On to `CC=CC1=C(C(=O)O)N2C(=O)[C@@H](NC(=O)[C@H](N)c3ccc(O)cc3)[C@H]2SC1` [Cefprozil], for which the half-life was 1.17 h.
